Read-outs that look alike come from different tables or passages of the source.
What was measured:
human CYP17A1 = target: T1, human CYP17A1 (Homo sapiens, UniProt P05093); assay: UV-VIS ligand binding assay (spectral titration) with purified CYP17A1; conditions: 100 nM purified CYP17A1, mean over 2 measurements ± standard error
T1 construct: bearing a truncation of the N-terminal helix; made in house
T1 sequence (P05093 with tags, fused parts or gaps limits assumed): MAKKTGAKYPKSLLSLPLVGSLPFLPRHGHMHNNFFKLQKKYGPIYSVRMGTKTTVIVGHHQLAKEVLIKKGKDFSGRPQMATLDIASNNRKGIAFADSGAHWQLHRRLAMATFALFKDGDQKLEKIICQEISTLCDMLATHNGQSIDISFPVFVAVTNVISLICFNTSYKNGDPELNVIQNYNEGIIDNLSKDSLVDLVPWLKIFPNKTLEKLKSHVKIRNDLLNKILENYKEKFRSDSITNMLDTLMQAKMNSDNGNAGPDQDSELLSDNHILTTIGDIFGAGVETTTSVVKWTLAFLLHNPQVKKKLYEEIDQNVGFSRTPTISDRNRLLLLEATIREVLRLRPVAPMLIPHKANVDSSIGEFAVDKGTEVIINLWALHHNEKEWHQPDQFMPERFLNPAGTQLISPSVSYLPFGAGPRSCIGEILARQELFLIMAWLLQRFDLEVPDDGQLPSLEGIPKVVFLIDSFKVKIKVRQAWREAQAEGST
Experimental: Direct coordination of nitrogen-containing heterocycles to the haem iron in the active site of cytochrome P450 enzymes causes a shift of the Soret peak λmax to higher wavelengths. Thus, UV-visible absorbance spectra were recorded as purified CYP17A1 was titrated with the 19 hit compounds. Addition of compounds 1–7 (cf. Fig. 2 and S3) yielded characteristic shifts in λmax from 417 nm to as high as 427 nm, typical of direct coordination to the haem iron. Plots of the changes in absorbance as a function of concentration can be used to evaluate ligand binding affinity. […] Compounds 6 and 7 have substantial intrinsic absorbance overlapping the range of the protein spectral change. Therefore the binding constants could not be determined for these latter two compounds.
Human CYP17A1 bearing a truncation of the N-terminal helix and a 4x histidine tag on the C-terminus was expressed and purified as previously reported.
Ligand binding was measured based on a change in UV-VIS absorbance (ΔA) upon ligand addition. Purified recombinant human cytochrome P450 enzymes (100 nM) were titrated with ligands dissolved in DMSO in 5 cm path length cuvettes. CYP17A1 and CYP21A2 were prepared in 50 mM Tris-HCl, pH 7.4, 500 mM NaCl, 20% (v/v) glycerol, and 100 mM glycine. The buffer used to prepare CYP21A2 also contained 50 mM DTT. CYP3A4 and CYP2D6 were prepared in 50 mM potassium phosphate, pH 7.4, 250 mM NaCl, 20% (v/v) glycerol and 1 mM EDTA. In each case, heteroatom coordination to the haem iron yields an increase in absorbance at ~420 nm and a corresponding decrease at ~390 nm. The apparent binding constant (Kd) and the maximum spectral change (ΔAmax) were calculated from a nonlinear least-squares regression fit to the tight binding equation (2) using GraphPad Prism 6.03.

H295R cell line = assay: H295R steroid hormone synthesis assay, production of steroidal hormones; format: cell-based, human; conditions: for IC50: Homo sapiens, NCI-H295R
Experimental: The H295R steroid hormone synthesis assay was performed according to the OECD validation guideline. Cells were cultured in DMEM/F12 media supplemented with 1% ITS-premix and 2.5% Nu-serum at 37 °C with a 5% CO2 atmosphere. The cells were only used for experiments between passage […]. During exposure experiments, cells were grown in 24 well plates with a density of 3 × 10^5 cells/mL. […] To avoid interference from low levels of steroid hormones present in the Nu-serum, the exposure experiment was conducted with serum-free media. Each compound was tested at a minimum of seven concentration levels using three or more replicates and the experiment was repeated on two different days (n = 6–15). On each test plate a solvent control (SC) (medium with 0.1% DMSO) was included in triplicate and the maximal concentration of DMSO in the cell medium was 0.1%[49]. After 48 hours of incubation in presence of the test compounds, 950 μL of the medium was carefully removed and internal standards (50 μl of 0.1 μg/μl solution containing deuterated steroid analogues) were added. Samples were stored at −20 °C for later analysis.
Steroid extraction and clean-up were performed by double protein precipitation. First, 900 μL of cold acetonitrile were added to the samples, which were then vortexed and centrifuged at ~9500 × g for 10 minutes. Second, 900 μL cold methanol was added to the supernatant and the mixture was vortexed and centrifuged at 1500 × g for 10 minutes. Finally, the supernatant was collected and concentrated to ~1 mL under a gentle stream of nitrogen at 60 °C.
For on-line solid phase extraction (SPE) of steroids, a total of 100 μL was injected on a binary 1290 Agilent Infinity Series system and a binary 1100 Agilent HPLC pump were used in combination (Agilent Technologies, Palo Alto, CA, USA). For online clean-up, a C18 enrichment column (μbondapak® C18, 3.9 × 20 mm, 10 μm, Waters) was used. The enrichment column was connected to the autosampler through the TTC switching valve (two positions, 6 ports). Between the autosampler and the TTC switching valve a 0.3 μm in-line filter (1290 infinity in-line filter, Agilent) was installed. Separation of steroid hormones was performed using a C18 analytical column (Kinetex, 2.6 μm C18 100 Å, 75 × 2.1 mm, Phenomenex, USA). An isocratic flow of 1 mL/min H2O:methanol:formic acid at 90:10:0.1 (v/v/v) was generated by the 1100 pump which was connected to the autosampler. The 1290 pump performed a gradient elution with a flow rate of 0.3 mL which was connected to the TTC switching valve. Mobile phase A and B were composed of H2O with 0.1% formic acid (v/v) and pure methanol, respectively. The elution gradient was maintained at 10% B for the first 2 min, changed to 10.0–30.0% from 2.0 to 2.2 min, 30.0–60.0% from 2.2 to 8.0 min, maintained at 60.0% from 8.0 to 10.0 min, increased to 60.0–85.0% from 10.0 to 12.30 min, 85.0–99.5% from 12.3 to 12.5 min and held at 99.5% from 12.5 to 14.8 min, before re-equilibrating the column until 16 minutes.
For detection, an AB SCIEX 4500 QTRAP mass spectrometer (Applied Biosystems, Foster City, CA, USA) equipped with an atmospheric pressure chemical ionization (APCI) Turbo V source was used. Multiple reaction monitoring (MRM) was performed in positive mode during the analysis with a targeted scan time of 0.8 sec. Nitrogen was applied as curtain, collision, and ion source gases.

[1] = H295R, progestagens, EC200 ± standard error
[2] = H295R, androgens, read-out: AN IC50
[3] = H295R, androgens, read-out: DHEA IC50
[4] = H295R, androgens, read-out: TS IC50
[5] = H295R, corticosteroids, read-out: 11deoxy-COR IC50
[6] = H295R, corticosteroids, read-out: 11deoxy-COS IC50
[7] = H295R, corticosteroids, read-out: COR IC50
[8] = H295R, corticosteroids, read-out: CORNE IC50
[9] = H295R, estrogens, read-out: E1 IC50
[10] = H295R, estrogens, read-out: E-E2 IC50
[11] = H295R, progestagens, mean over 6 to 15 measurements ± standard error, read-out: PREG IC50
[12] = H295R, progestagens, read-out: 17OH-PREG IC50
[13] = H295R, progestagens, read-out: 17OH-PROG IC50

Compound	Kd (human CYP17A1) [µM]	Effect on the CYP17A1 substrates pregnenolone and progesterone (H295R cell line; H295R cells)	PREG EC200 (H295R cell line; [1]) [nM]	PROG EC200 (H295R cell line; [1]) [nM]	IC50 (H295R cell line; [2]) [µM]	IC50 (H295R cell line; [3]) [µM]	IC50 (H295R cell line; [4]) [µM]	IC50 (H295R cell line; [5]) [µM]	IC50 (H295R cell line; [6]) [µM]	IC50 (H295R cell line; [7]) [µM]	IC50 (H295R cell line; [8]) [µM]	IC50 (H295R cell line; [9]) [µM]	IC50 (H295R cell line; [10]) [µM]	IC50 (H295R cell line; [11]) [µM]	IC50 (H295R cell line; [12]) [µM]	IC50 (H295R cell line; [13]) [µM]	other results
Cc1ccc(-c2csc(-c3cccnc3)n2)c(C)c1 [Compound 1]	< 0.1	dose-dependent increases	500 ± 70	146 ± 7	0.068 ± 0.002	0.094 ± 0.03	0.052 ± 0.002	0.48 ± 0.01	0.31 ± 0.06	1.2 ± 0.1	0.7 ± 0.1	0.22 ± 0.01	0.235 ± 0.006	0.39 ± 0.07	0.83 ± 0.08	0.8 ± 0.2	11deoxy-COS EC200 (H295R cell line; H295R, EC200 ± standard error): 146 ± 4 nM; COS EC200 (H295R cell line; H295R, EC200 ± standard error): 56 ± 1 nM; IC50 (H295R cell line; H295R cells, read-out: IC50 values for progestagens and corticosteroids (range)): 0.3 to 1.2 µM
CCCn1nnc2cc(-c3cc(-c4ccncc4)c(C#N)c(N)n3)ccc21 [Compound 2]	< 0.1	dose-dependent increases	19 ± 4	32 ± 4	0.0043 ± 0.0001	0.0074 ± 0.0001	0.0033 ± 0.0002	0.054 ± 0.005	0.0238 ± 0.0009	0.036 ± 0.004	0.023 ± 0.001	0.019 ± 0.003	0.05 ± 0.01	0.015 ± 0.003	0.052 ± 0.004	0.02 ± 0.001	IC50 (H295R cell line; H295R, corticosteroids, read-out: COS IC50): 0.036 ± 0.004 µM
C[C@]12CC[C@H](O)CC1=CC[C@@H]1[C@@H]2CC[C@]2(C)C(c3cccnc3)=CC[C@@H]12 [abiraterone, reference compound]	< 0.1	–	7.3 ± 0.3	1.0 ± 0.1	0.0005	0.0018 ± 0.0001	0.0002	0.0053 ± 0.0001	–	0.005 ± 0.0004	0.0025 ± 0.0001	0.0008 ± 0.0001	0.408 ± 0.06	0.0059 ± 0.0005	0.0097 ± 0.0003	0.0063 ± 0.0002	IC50 (H295R cell line; H295R, progestagens, mean over 6 to 15 measurements ± standard error, read-out: PROG IC50): 0.181 ± 0.005 µM; IC50 (H295R cell line; H295R, calculated on low concentrations of abiraterone (first part of the Gaussian-like curve), read-out: 11deoxy-COS IC50): 0.0026 ± 0.0005 µM; IC50 (H295R cell line; H295R, calculated on low concentrations of abiraterone (first part of the Gaussian-like curve), read-out: COS IC50): 0.0029 ± 0.0005 µM; IC50 (H295R cell line; H295R, calculated using high concentrations of abiraterone (second part of the Gaussian-like curve), read-out: 11deoxy-COS IC50): 0.24 ± 0.02 µM

— paper PMC4942611, “Promising Tools in Prostate Cancer Research: Selective Non-Steroidal Cytochrome P450 17A1 Inhibitors” (Scientific Reports, 2016)
